# Results reported in US7759334B2, “Soluble forms of amoxicillin and treatment of animals” (Pharmaceutical Solutions, Inc., priority 1999, dated 2010).
# Assays:
# [1] = system: Enterococci; conditions: cited from earlier work
# [2] = system: STREP Suis Type 2; assay: Treatment of streptococcus Suis in nursery pigs; assay type: in vivo; conditions: 300 pigs, 3 mg/lb for 7 days from 35 days of age
# Method: Treatment of streptococcus Suis—a group of 600 pigs was divided into 2 groups of 300. Each group was side by side in a 600 animal nursery room. Group 1 (300) was treated with 3 mg/lb of amoxicillin at 35 days of age for a period of 7 days. Group 2 (300) was treated with a placebo—citric acid/nutrisweet/strawberry flavor at 35 days of age for a period of 7 days. […] Death loss ranged from 3 to 10 percent with poor treatment results.
# [3] = system: Hermophilus Pawasuis; assay: Treatment for Hermophilus Pawasuis in finishing gilts; assay type: in vivo; conditions: 500 gilts, 3 mg/# via water
# From the text: Treatment for Hermophilus Pawasuis in finishing Gilts—wt. 250#. • Marked Reduction in death loss following 5 day coarse of therapy.
# [4] = cited from earlier work
SMILES,IVIIC for ampicillin averages [1] [mg/mL],Chronic cells @ 50 [2],Morbidity Number [2],Mortality Number [2],Morbidity 8-142 [3],Mortality In 14 days [3],Mortality result in 7 days [3],Morbidity 0-7 ([3]; days 0-7),Peak plasma concentration relative to ampicillin ([4]; oral administration of the same doses),Time at which peak plasma concentrations are reached ([4]; oral administration) [h],"Peak concentration in plasma (average) ([4]; oral, 250 mg administered)"
CC1(C)S[C@@H]2[C@H](NC(=O)[C@H](N)c3ccccc3)C(=O)N2[C@H]1C(=O)O [ampicillin],1.5,–,–,–,–,–,–,–,–,–,–
CC1(C)S[C@@H]2[C@H](NC(=O)[C@H](N)c3ccc(O)cc3)C(=O)N2[C@H]1C(=O)O [amoxicillin],–,1,2,0,0,0,0,2,two to two and one-half times greater,2,about 4 μg/ml
